Measurements from patent US20240180865A1, “SUSTAINED-RELEASE LIPID PRE-CONCENTRATE” (TIONLAB THERAPEUTICS, priority 2021, published 2024).

Test: Peroxide value of liquid crystal former according to type of stabilizer
Type: physicochemical
Conditions: 0.3 g stabilizer in 3 g safflower oil, castor oil, cottonseed oil or oleic acid; 60° C. for two weeks
Description: 0.3 g of each of tocopherol, ViC_palmitate, mannitol, and ViC_Na was added as stabilizers to 3 g of each of safflower oil, castor oil, cottonseed oil, and oleic acid. After the resulting mixture was heated at 45 to 60° C. after DI treatment, it was cooled to room temperature and left to stand for 3 hours.
The degree of rancidity was evaluated by allowing the mixture to stand under harsh conditions of 60° C. for two weeks to measure the peroxide value of the liquid crystal former.
In order to measure the peroxide value, 0.3 g of the sample was weighed into a 300-ml Erlenmeyer flask, and then 30 ml of a solution of chloroform:glacial acetic acid (2:3) was added thereto. After a temporary dark place was created with silver foil paper, 1 ml of a KI saturated solution was added, and the resulting mixture was shaken vigorously, and then left to stand in the dark place for 5 minutes. Thereafter, 30 ml of distilled water was again added thereto, 1 ml of a 1% starch solution was added thereto, and then the resulting mixture was vigorously mixed. Thereafter, the mixture was titrated with a 0.01 N-Na2S2O3 standard solution while stirring with a magnetic stirrer, and the end point was set to the time when the dark blue color of the starch disappeared. Thereafter, the peroxide value of the sample was determined using the following equation. […]

Compound	peroxide value of the liquid crystal former
CCCCCCCCCCCCCCCC(=O)OC[C@H](O)[C@H]1OC(=O)C(O)=C1O [ViC_palmitate, ascorbic palmitate]	the peroxide values of all the liquid crystal formers used in this test example were low
tocopherol	the peroxide value is higher than when no stabilizer is used
